ChEMBL document CHEMBL5579847, “Synthesis, design, and optimization of a potent and selective series of pyridylpiperazines as promising antimalarial agents” (Eur J Med Chem, 2024)
Calls of active or inactive are those of the source. The rule behind the calls is not given here.

How the values were obtained:
Plasmodium falciparum [1] = assay: Antimalarial activity against Plasmodium falciparum 3D7 infected in red blood cells after 96 hrs by SYBR Green I dye based fluorescence assay; format: functional, organism-based, Red blood cell; settings: 3D7, Erythrocyte
Plasmodium falciparum [2] = assay: Antimalarial activity against chloroquine-resistant Plasmodium falciparum Dd2 infected in red blood cells after 96 hrs by SYBR Green I dye based fluorescence assay; format: functional, organism-based, Red blood cell; settings: Dd2, Erythrocyte
[3] = Cytotoxicity against human HepG2 cells assessed as reduction in cell viability after 48 hrs by WST-1 assay; format: toxicity, cell-based
[4] = Selectivity index, ratio of CC50 for cytotoxicity against human HepG2 cell to IC50 for antimalarial activity against Plasmodium falciparum 3D7 infected in red blood cells; format: toxicity, cell-based; settings: read-out: Ratio CC50/IC50
[5] = Selectivity index, ratio of CC50 for cytotoxicity against human HepG2 cell to IC50 for antimalarial activity against chloroquine-resistant Plasmodium falciparum Dd2 infected in red blood cells; format: toxicity, cell-based; settings: read-out: Ratio CC50/IC50
[6] = target: T1, Dihydroorotate dehydrogenase (quinone), mitochondrial (Plasmodium falciparum (isolate 3D7)) (UniProt Q08210); assay: Inhibition of Plasmodium falciparum DHODH at 250 uM relative to control
T1 sequence (whole entry): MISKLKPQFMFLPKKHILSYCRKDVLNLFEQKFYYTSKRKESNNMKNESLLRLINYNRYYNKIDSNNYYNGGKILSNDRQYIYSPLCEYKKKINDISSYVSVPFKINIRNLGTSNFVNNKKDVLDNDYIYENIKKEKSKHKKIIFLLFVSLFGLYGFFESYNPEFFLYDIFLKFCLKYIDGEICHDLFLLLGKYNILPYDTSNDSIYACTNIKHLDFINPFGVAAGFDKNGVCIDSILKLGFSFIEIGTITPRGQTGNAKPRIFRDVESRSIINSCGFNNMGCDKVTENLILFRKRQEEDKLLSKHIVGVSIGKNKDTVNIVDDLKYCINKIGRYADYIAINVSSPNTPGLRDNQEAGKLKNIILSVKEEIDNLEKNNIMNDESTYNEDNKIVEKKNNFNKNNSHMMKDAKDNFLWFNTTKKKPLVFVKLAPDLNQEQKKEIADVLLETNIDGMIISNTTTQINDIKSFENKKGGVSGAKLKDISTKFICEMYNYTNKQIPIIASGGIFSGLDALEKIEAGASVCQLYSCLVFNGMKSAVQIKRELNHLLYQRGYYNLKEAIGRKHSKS

[7] = target: T1, Dihydroorotate dehydrogenase (quinone), mitochondrial (Plasmodium falciparum (isolate 3D7)); assay: Inhibition of Plasmodium falciparum DHODH

| SMILES | IC50 (Plasmodium falciparum [1]) [µM] | IC50 (Plasmodium falciparum [2]) [µM] | CC50 at 48 h [3] [µM] | selectivity ratio [4] | selectivity ratio [5] | inhibition [6] [%] | inhibition [7] |
| --- | --- | --- | --- | --- | --- | --- | --- |
| O=C(NC1CC1)c1ccc(N2CCN(C(=O)c3ccccn3)CC2)nc1 | > 100 | – | – | – | – | – | – |
| Cc1ccccc1N1CCN(c2ccc(C(=O)NC3CC3)cn2)CC1 | 1 | 0.7 | > 100 | > 100 | > 143 | 30 | – |
| N#Cc1cccnc1N1CCN(c2ccc(C(=O)NC3CC3)cn2)CC1 | 6.7 | 15 | > 100 | > 15 | > 7 | – | – |
| O=C(NC1CC1)c1ccc(N2CCNCC2)nc1 | > 100 | – | – | – | – | – | – |
| Nc1cccnc1N1CCN(c2ccc(C(=O)NC3CC3)cn2)CC1 | 46.4 | – | – | – | – | – | – |
| O=C(NC1CC1)c1ccc(N2CCN(c3cccc(O)c3)CC2)nc1 | 4.1 | 7.3 | 36.2 | 9 | 5 | – | – |
| O=C(NC1CC1)c1ccc(N2CCN(c3ccc(C(F)(F)F)cn3)CC2)nc1 | 1.1 | 1.6 | – | – | – | – | – |
| O=C(NC1CC1)c1ccc(N2CCN(Cc3ccccc3)CC2)nc1 | 10.9 | 6.1 | 12.1 | 1 | 2 | – | – |
| COc1ccc(N2CCN(c3ccc(C(=O)NC4CC4)cn3)CC2)cc1 | 2.9 | 9.4 | – | – | – | – | – |
| O=C(NC1CC1)c1ccc(N2CCN(c3ccccn3)CC2)nc1 | 13.9 | – | > 100 | > 7 | – | – | – |
| O=C(NC1CC1)c1ccc(N2CCN(c3ncccn3)CC2)nc1 | 5.6 | 10.5 | – | – | – | – | – |
| O=C(NC1CC1)c1ccc(N2CCN(c3ccccc3F)CC2)nc1 | 1.3 | 2.3 | – | – | – | – | inactive |
| O=C(NC1CC1)c1ccc(N2CCN(c3cnccn3)CC2)nc1 | 2.8 | 3.6 | > 100 | > 36 | > 28 | – | inactive |
| O=C(NC1CC1)c1ccc(N2CCN(S(=O)(=O)c3ccccc3)CC2)nc1 | 37.2 | – | – | – | – | – | – |
| CN1CCN(c2ccc(C(=O)NC3CC3)cn2)CC1 | > 100 | – | – | – | – | – | – |
| O=C(NC1CC1)c1ccc(N2CCN(C(=O)c3ccccc3)CC2)nc1 | > 100 | – | – | – | – | – | – |
| O=C(NC1CC1)c1ccc(N2CCN(c3ncccc3[N+](=O)[O-])CC2)nc1 | 5.7 | 10.2 | 51.2 | 9 | 5 | – | – |
| COc1ccc(CN2CCN(c3ccc(C(=O)NC4CC4)cn3)CC2)cc1 | 6.5 | 13 | > 100 | > 15 | > 8 | – | – |
| O=C(NC1CC1)c1ccc(N2CCN(c3ncccc3C(F)(F)F)CC2)nc1 | 1 | 4.4 | > 100 | > 96 | > 23 | – | inactive |
| O=C(NC1CC1)c1ccc(N2CCN(c3ccccc3C(F)(F)F)CC2)nc1 | 1.7 | 0.5 | > 100 | > 59 | > 200 | 20 | inactive |
| O=C(NC1CC1)c1ccc(N2CCN(c3ccccc3)CC2)nc1 | 6 | 3.3 | > 100 | > 21 | > 30 | – | – |
| O=C(NC1CC1)c1ccc(N2CCN(c3ccccc3Cl)CC2)nc1 | 0.4 | 0.7 | – | – | – | – | – |
| CCN(CC)CCCC(C)Nc1ccnc2cc(Cl)ccc12 (stereo unspecified) [CHLOROQUINE] | 10.2 | – | – | – | – | – | – |
